From patent US9221814B2, “Heterocyclic guanidine F1F0-atpase inhibitors and therapeutic uses thereof” (Lycera Corporation, priority 2012, dated 2015)
Read-outs that look alike come from different tables or passages of the source.

Tests used:
[1] = tested on: Ramos cells; experiment: Cytotoxicity in Ramos cells; assay type: cell-based; conditions: detection limit EC50=16 μM, read-out: Ramos Cell EC50
Experimental: (§1) Exemplary compounds described in above Examples were tested for activity against F1F0-ATPase by measuring the ability of the compounds to inhibit ATP synthesis. In addition, the compounds were assessed for cytotoxicity in Ramos cells. Inhibition of F1F0-ATPase activity in synthesizing ATP and cytotoxicity in Ramos cells were measured according to the procedures described in K. M. Johnson et al. Chemistry & Biology 2005, 12, 485-496.

[2] = target: T1, F1F0-ATPase (Bos taurus, UniProt P13621); experiment: Inhibition of F1F0-ATPase activity in synthesizing ATP (ATP synthesis inhibition); assay type: biochemical; conditions: detection limit IC50=16 μM, read-out: ATP Syn IC50
T1 construct: from tissue
Experimental: as §1

Row | SMILES | EC50 [1] [µM] | IC50 [2] [µM] | EC50 ([1]; Homo sapiens) [µM]
1 | Cc1cc(C(=O)/N=C(/NCC(C)C)Nc2cc(-c3cc(F)cc(F)c3)n[nH]2)n(C)n1 [Compound A-83] | 5 to 16 | < 5 | 
2 | COC[C@H](C)N/C(=N/C(=O)c1cc(C)nn1C)Nc1cc(-c2cc(F)cc(F)c2)[nH]n1 [Compound A-84] | > 16 | 5 to 16 | 
3 | Cc1oncc1C(=O)/N=C(/NCc1ccc(F)cc1Cl)Nc1cc(-c2ccc(Cl)cc2)n[nH]1 [Compound A-85] | 5 to 16 | 5 to 16 | 
4 | Cc1cc(C(=O)/N=C(/NCc2ccc(F)cc2Cl)Nc2cc(-c3ccc(F)cc3)n[nH]2)n(C)n1 [Compound A-86] | 5 to 16 | < 5 | 
5 | Cc1oncc1C(=O)/N=C(\Nc1cc(-c2cc(F)cc(F)c2)n[nH]1)NC(C)(C)C [Compound A-87] | < 5 | < 5 | 
6 | CCC(C)N/C(=N/C(=O)c1cnoc1C)Nc1cc(-c2cc(F)cc(F)c2)n[nH]1 (centres unmarked) [Compound A-88] | 5 to 16 | < 5 | 
7 | Cc1oncc1C(=O)/N=C(\Nc1cc(-c2ccc(Cl)cc2)[nH]n1)NC1CCCC1 [Compound A-89] | > 16 | > 16 | 
8 | CCC(C)N/C(=N/C(=O)c1cnoc1C)Nc1cc(-c2ccc(Cl)cc2)n[nH]1 (centres unmarked) [Compound A-90] | > 16 | > 16 | 
9 | Cc1ccc(-c2cc(N/C(=N\C(=O)c3cnoc3C)NC3CCCC3)n[nH]2)cc1F [Compound A-91] | < 5 | < 5 | 
10 | Cc1ccc(-c2cc(N/C(=N\C(=O)c3cnoc3C)NC3(C)CCCC3)[nH]n2)cc1F [Compound A-92] | < 5 | < 5 | 
11 | Cc1ccc(-c2cc(N/C(=N\C(=O)c3cnoc3C)NC(C)(C)C)[nH]n2)cc1F [Compound A-93] | < 5 | < 5 | 
12 | Cc1ccc(-c2cc(N/C(=N\C(=O)c3cnoc3C)NC3CCC3)[nH]n2)cc1F [Compound A-94] | 5 to 16 | < 5 | 
13 | Cc1oncc1C(=O)/N=C(\Nc1cc(-c2cc(F)cc(F)c2)n[nH]1)NC1(C)CCCC1 [Compound A-95] | < 5 | < 5 | 
14 | Cc1oncc1C(=O)/N=C(\Nc1cc(-c2cc(F)cc(Cl)c2)n[nH]1)NC(C)(C)C [Compound A-96] | < 5 | < 5 | 
15 | Cc1oncc1C(=O)N=C(Nc1cc(-c2cc(F)cc(Cl)c2)n[nH]1)NC1CCCC1 [Compound A-97] |  | < 5 | < 5
16 | Cc1oncc1C(=O)/N=C(\Nc1cc(-c2cc(F)cc(Cl)c2)n[nH]1)NC1(C)CCCC1 [Compound A-98] | < 5 | < 5 | 

Row | SMILES | EC50 [1] [µM] | IC50 [2] [µM] | EC50 ([1]; Homo sapiens) [µM]
17 | Cc1oncc1C(=O)N=C(NCC(C)C)Nc1cc(-c2cc(F)cc(Cl)c2)n[nH]1 [Compound A-99] |  | < 5 | 5 to 16
18 | Cc1oncc1C(=O)/N=C(\Nc1cc(-c2cc(F)cc(Cl)c2)n[nH]1)NC(C)C [Compound A-100] | < 5 | < 5 | 
19 | CCC(C)N/C(=N/C(=O)c1cnoc1C)Nc1cc(-c2cc(F)cc(Cl)c2)n[nH]1 (centres unmarked) [Compound A-101] | < 5 | < 5 | 
20 | Cc1oncc1C(=O)/N=C(\Nc1cc(-c2cc(F)cc(Cl)c2)n[nH]1)NC1CCC1 [Compound A-102] | < 5 | < 5 | 
21 | Cc1oncc1C(=O)/N=C(/NCCCOC(C)C)Nc1cc(-c2cc(F)cc(Cl)c2)[nH]n1 [Compound A-103] | > 16 | > 16 | 
22 | CCOCCCN/C(=N/C(=O)c1cnoc1C)Nc1cc(-c2ccc(Cl)cc2)n[nH]1 [Compound A-104] | > 16 | > 16 | 
23 | CCOCCCN/C(=N/C(=O)c1cnoc1C)Nc1cc(-c2ccc(F)cc2)n[nH]1 [Compound A-105] | > 16 | > 16 | 
24 | CCOCCCN/C(=N/C(=O)c1cnoc1C)Nc1cc(-c2ccc(C)c(F)c2)n[nH]1 [Compound A-106] | > 16 | 5 to 16 | 
25 | Cc1cc(N/C(=N\C(=O)c2cc(C)oc2C(F)(F)F)NC(C)(C)C)[nH]n1 [Compound A-107] | > 16 | > 16 | 
26 | Cc1cc(N/C(=N\C(=O)c2cc(C)oc2C(F)(F)F)Nc2cc(F)cc(Cl)c2)n[nH]1 [Compound A-108] | 5 to 16 | < 5 | 
27 | Cc1cc(N/C(=N\C(=O)c2cc(C)oc2C(F)(F)F)NCC(C)C)[nH]n1 [Compound A-109] | > 16 | 5 to 16 | 
28 | Cc1cc(N/C(=N\C(=O)c2cc(C)oc2C(F)(F)F)NCC(C)(C)C)n[nH]1 [Compound A-110] | > 16 | 5 to 16 | 
29 | CCC(C)N/C(=N/C(=O)c1cc(C)oc1C(F)(F)F)Nc1cc(C)n[nH]1 (centres unmarked) [Compound A-111] | > 16 | 5 to 16 | 
30 | Cc1cc(N/C(=N\C(=O)c2cc(C)oc2C(F)(F)F)NC(C)C)n[nH]1 [Compound A-112] | > 16 | > 16 | 
31 | COC[C@H](C)N/C(=N/C(=O)c1cc(C)oc1C(F)(F)F)Nc1cc(C)n[nH]1 [Compound A-113] | > 16 | > 16 | 
